According to patent US20260374739A1, “SMALL MOLECULAR WEIGHT CHEMICAL COMPOUND TO ANTAGONIZE EPH-EPHRIN TETRAMERIZATION AND INHIBIT BIDIRECTIONAL SIGNALING” (THE BOARD OF REGENTS OF THE UNIVERSITY OF TEXAS SYSTEM, priority 2022, published 2026):
Where “and” joins values, the source holds several entries; their conditions need not be identical. Identical values can stand only once. Like-named read-outs stand apart in the source and are kept apart here.

Experiments:
EphrinB2-EphB1 = molecular target: T1, EphrinB2-EphB1 (Homo sapiens, UniProt P54762); assay: Octet 80 sec association/500 sec dissociation, immobilized human EphrinB2-Fc binding to soluble human EphB1-His; conditions: for % Inhibition: Association + Dissociation (160 sec) / inhibition at 3.2 µM: EphB1, 25 nM EphB1, 3.2 μM compound, A20-I as max control, 0* = less than 0, no inhibition; for EphB1 Inhibition Percent, Inhibition of Association ONLY: at 3.2 μM and 80 seconds; for EphB1 Inhibition Percent, Inhibition of Association ONLY / EphB1 Inhibition Percent, Inhibition of Association-Dissociation: immobilized human EphrinB2, 25 nM soluble human EphB1; for EphB1 Inhibition Percent, Inhibition of Association-Dissociation: at 3.2 μM and 580 seconds
T1 construct: soluble human EphB1-His, EphB2-His, and EphB4-His ectodomains; commercially available human EphrinB1-Fc (EB1), EphrinB2-Fc (EB2), and EphrinB3-Fc (EB3) ectodomain proteins; purchased
T1 sequence (P54762 18-540 limits assumed): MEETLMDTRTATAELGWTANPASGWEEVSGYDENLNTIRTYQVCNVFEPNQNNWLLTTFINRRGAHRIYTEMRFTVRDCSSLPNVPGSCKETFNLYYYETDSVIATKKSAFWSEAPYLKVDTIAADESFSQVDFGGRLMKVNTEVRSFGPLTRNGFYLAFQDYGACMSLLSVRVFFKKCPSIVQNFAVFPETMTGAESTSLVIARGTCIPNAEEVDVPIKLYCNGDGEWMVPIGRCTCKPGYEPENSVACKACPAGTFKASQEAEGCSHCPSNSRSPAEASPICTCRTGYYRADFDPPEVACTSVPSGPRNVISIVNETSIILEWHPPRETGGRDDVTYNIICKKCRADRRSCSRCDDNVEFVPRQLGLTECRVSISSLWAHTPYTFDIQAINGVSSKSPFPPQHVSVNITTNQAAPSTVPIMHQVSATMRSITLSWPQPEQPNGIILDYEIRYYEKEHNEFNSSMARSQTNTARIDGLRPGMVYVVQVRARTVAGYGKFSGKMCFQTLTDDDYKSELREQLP
Procedure, shortened: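 EphrinB2-Fc captured on AHC biosensors, then soluble His-tagged EphB ectodomain (25 nM for % inhibition runs) associated 80 s and dissociated 500 s in PBS, 0.05% Tween-20, 1% DMSO ± compound. Compounds tested at 0.1–3.2 μM with a 10 μM max standard; IC50 from AUC of full traces or at 75 s and 135 s.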

EphrinB2-EphB2 = molecular target: T2, EphrinB2-EphB2 (Homo sapiens, UniProt P29323); assay: Octet tetramerization inhibition, immobilized human EphrinB2 binding to 50 nM soluble human EphB2; conditions: for disruption of unsurmountable tetramer: 0.8-3.2 μM
T2 construct: soluble human EphB1-His, EphB2-His, and EphB4-His ectodomains; commercially available human EphrinB1-Fc (EB1), EphrinB2-Fc (EB2), and EphrinB3-Fc (EB3) ectodomain proteins; purchased
T2 sequence (P29323 19-543 limits assumed): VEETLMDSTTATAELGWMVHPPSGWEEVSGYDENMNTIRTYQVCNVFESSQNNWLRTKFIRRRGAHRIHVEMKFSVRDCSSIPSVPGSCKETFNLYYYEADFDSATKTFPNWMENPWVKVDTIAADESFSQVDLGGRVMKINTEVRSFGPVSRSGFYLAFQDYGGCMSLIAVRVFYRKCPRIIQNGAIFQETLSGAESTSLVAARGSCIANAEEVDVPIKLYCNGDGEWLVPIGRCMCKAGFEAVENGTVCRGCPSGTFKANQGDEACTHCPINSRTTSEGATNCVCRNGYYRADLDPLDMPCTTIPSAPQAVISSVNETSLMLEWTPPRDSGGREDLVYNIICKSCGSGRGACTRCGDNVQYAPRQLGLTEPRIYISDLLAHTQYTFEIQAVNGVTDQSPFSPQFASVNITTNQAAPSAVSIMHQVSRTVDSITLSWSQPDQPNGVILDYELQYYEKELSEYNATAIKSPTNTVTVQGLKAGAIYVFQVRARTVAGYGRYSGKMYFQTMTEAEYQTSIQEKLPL

[1] = Absolute AUC/IC50, Table A, EphrinB2-EphB2
[2] = Absolute Association IC50 (300 sec), Table A, EphrinB2-EphB2
[3] = Absolute Dissociation IC50 (450 sec), Table A, EphrinB2-EphB2
[4] = Relative AUC/IC50, Table A, EphrinB2-EphB2, compound 7: association only
[5] = Relative Association IC50 (300 sec), Table A, EphrinB2-EphB2
[6] = Relative Dissociation IC50 (450 sec), Table A, EphrinB2-EphB2
[7] = tetramerization inhibitor IC50 (relative), association step, surmountable tetramer
[8] = read-out: % Inhibition: Association + Dissociation (160 sec)
[9] = read-out: % Inhibition: Association ONLY (80 sec)

| Compound | % Inhibition: Association + Dissociation (160 sec) (EphrinB2-EphB1; listed as A19-NO2 (A)) | inhibition of EphB1-EphrinB2 binding (EphrinB2-EphB1; association step, general) [%] | EphB1 Inhibition Percent, Inhibition of Association ONLY (EphrinB2-EphB1) | EphB1 Inhibition Percent, Inhibition of Association-Dissociation (EphrinB2-EphB1) | tetramerization inhibitor activity (EphrinB2-EphB2) | IC50 (EphrinB2-EphB2; [1]) | IC50 (EphrinB2-EphB2; [2]) | IC50 (EphrinB2-EphB2; [3]) | IC50 (EphrinB2-EphB2; [4]) | IC50 (EphrinB2-EphB2; [5]) | IC50 (EphrinB2-EphB2; [6]) | IC50 (EphrinB2-EphB2; [7]) [µM] | inhibition at 3.2 µM (EphrinB2-EphB1; [8]) [%] | inhibition at 3.2 µM (EphrinB2-EphB1; [9]) [%] | disruption of unsurmountable tetramer (EphrinB2-EphB2) | % Inhibition: Association + Dissociation (160 sec) (EphrinB2-EphB1; listed as QPB4) [%] | disruption of unsurmountable tetramer (EphrinB2-EphB2; listed as 3511-1) | disruption of unsurmountable tetramer (EphrinB2-EphB2; listed as 3511-I) |
| --- | --- | --- | --- | --- | --- | --- | --- | --- | --- | --- | --- | --- | --- | --- | --- | --- | --- | --- |
| O=[N+]([O-])c1cc(CN2CCOCC2)c2cccnc2c1O [Compound 9, 5-(morpholinomethyl)-7-nitroquinolin-8-ol] | 36.9% and 29.8% | 25 | 22.5% and 16.1% and 15.7% | 36.9% and 29.8% and 22.8% | weak, essentially inactive | > 3.2 µM | > 3.2 µM | > 3.2 µM | > 3.2 µM | > 3.2 µM | > 3.2 µM | > 3 | – | – | – | – | – | – |
| O=C(Cc1ccccc1)Nc1ccc(N2CCN(Cc3ccc(O)c4ncccc34)CC2)cc1 [Compound 51, N-(4-(4-((8-hydroxyquinolin-5-yl)methyl)piperazin-1-yl)phenyl)-2-phenylacetamide] | – | – | – | – | – | 1.51 µM | 1.45 µM | 1.29 µM | 1.02 µM | 0.98 µM | 0.93 µM | ~1.2 | 61.2 | 52.7 | able to inhibit a small amount of the EphrinB2-EphB2 unsurmountable tetramer | – | – | – |
| Oc1ccc(CN2CCN(Cc3ccc(Br)cc3)CC2)c2cccnc12 [Compound 42, 5-((4-(4-bromobenzyl)piperazin-1-yl)methyl)quinolin-8-ol] | – | – | – | – | – | 2.51 µM | – | 1.91 µM | 0.93 µM | 1.02 µM | 1.05 µM | – | 36.5 | 19.9 | – | – | – | – |
| COc1ccc2[nH]cc(C(=O)N3CCN(c4ccccc4OC)CC3)c2c1 [Compound 64, (5-methoxy-1H-indol-3-yl)(4-(2-methoxyphenyl)piperazin-1-yl)methanone] | – | – | – | – | – | > 1.6 µM | > 1.6 µM | > 1.6 µM | > 1.6 µM | > 1.6 µM | > 1.6 µM | – | 0 | 0 | – | – | – | – |
| Oc1c(I)cc(CN2CCOCC2)c2cccnc12 [Compound 8, 4-((8-hydroxy-7-iodoquinolin-1-ium-5-yl)methyl)morpholin-4-ium chloride] | – | – | – | 53.2% | – | 1.32 µM and 1 µM and 1.48 µM | 1.38 µM and 1.35 µM and > 3.2 µM | 0.98 µM and 1.26 µM and 0.85 µM | 0.63 µM | 0.63 µM and 0.85 µM | 0.66 µM and 0.93 µM | – | – | – | – | – | – | – |
| OCc1ccc2c(CN3CCOCC3)cc(Br)c(O)c2n1 [Compound 13, 7-bromo-2-(hydroxymethyl)-5-(morpholinomethyl)quinolin-8-ol] | – | – | – | – | – | > 3.2 µM | > 3.2 µM | 2.51 µM | 1.45 µM | 1.41 µM | 1.54 µM | ~1.6 | 29.1 | 12.4 | – | – | – | – |
| Oc1ccc(CN2CCN(c3ccc(Br)cc3)CC2)c2cccnc12 [Compound 26, 5-((4-(4-bromophenyl)piperazin-1-yl)methyl)quinolin-8-ol] | – | – | 11.2% | 36.6% | – | – | – | – | – | – | – | 1.2 | 30.6 | – | – | 35.0 | – | – |
| Oc1ccc(CN2CCN(Cc3ccccc3)CC2)c2cccnc12 [Compound 41, 5-((4-benzylpiperazin-1-yl)methyl)quinolin-8-ol] | – | – | – | – | – | 2.09 µM and > 3.2 µM | 2.82 µM and 3.02 µM | 3.02 µM and 3 µM | 2.14 µM | 1.82 µM | 2.24 µM and 2 µM | – | 27.7 | 18.7 | – | – | – | – |
| COc1ccccc1N1CCN(Cc2cc(Br)c(O)c3ncccc23)CC1 [Compound 70, 7-bromo-5-((4-(2-methoxyphenyl)piperazin-1-yl)methyl)quinolin-8-ol] | – | – | – | – | – | > 1.6 µM | 1.2 µM | 0.36 µM | 0.17 µM | 0.18 µM | 0.19 µM | ~0.2 | 58.8 | 47.2 | – | – | – | – |
| Oc1c(Br)cc(CN2CCN(c3ccc(Br)cc3)CC2)c2cccnc12 [Compound 30, 7-bromo-5-((4-(4-bromophenyl)piperazin-1-ium-1-yl)methyl)-8-hydroxyquinolin-1-ium chloride] | – | – | 24.7% and 39.1% | 38.6% and 53.1% | – | 0.26 µM | 0.6 µM | – | 0.29 µM and 0.26 µM | – | 0.34 µM | – | – | – | – | – | – | – |
| Oc1c(Br)cc(CN2CCN(Cc3ccc(Br)cc3)CC2)c2cccnc12 [Compound 44, 7-bromo-5-((4-(4-bromobenzyl)piperazin-1-yl)methyl)quinolin-8-ol] | – | – | – | – | appears promising | > 3.2 µM | > 3.2 µM | 0.38 µM | – | 0.28 µM | 0.3 µM | – | 49.9 | 37.3 | – | – | – | – |
| Oc1ccc(CN2CCN(c3ccc(Br)cn3)CC2)c2cccnc12 [Compound 33, 5-((4-(5-bromopyridin-2-yl)piperazin-1-yl)methyl)quinolin-8-ol] | – | – | – | – | – | 2.51 µM | > 3.2 µM | – | 2.19 µM | 1.82 µM | 2.24 µM | – | 58.6 | 46.4 | – | – | – | – |
| COc1ccccc1N1CCN(Cc2cc(I)c(O)c3ncccc23)CC1 [Compound 71, 7-iodo-5-((4-(2-methoxyphenyl)piperazin-1-yl)methyl)quinolin-8-ol] | – | – | – | – | exhibit strong IC50 values | 0.42 µM and 0.53 µM | 0.68 µM | 0.62 µM and 0.65 µM | 0.38 µM and 0.41 µM | 0.47 µM and 0.34 µM | 0.48 µM and 0.51 µM | – | 52.3 | 39.6 | – | – | fairly strong ability to disrupt some of the unsurmountable tetramer | able to inhibit a small amount of the EphrinB2-EphB2 unsurmountable tetramer |
